Data on five molecules can be found in patent US12195482B1 (Arcus Biosciences, Inc., priority 2022, dated 2025).

As usually defined, the IC50 is the midpoint of a concentration-inhibition curve.

The target of assay [1] is T1, Axl (Homo sapiens, UniProt P30530).
T1 sequence (P30530 26-894): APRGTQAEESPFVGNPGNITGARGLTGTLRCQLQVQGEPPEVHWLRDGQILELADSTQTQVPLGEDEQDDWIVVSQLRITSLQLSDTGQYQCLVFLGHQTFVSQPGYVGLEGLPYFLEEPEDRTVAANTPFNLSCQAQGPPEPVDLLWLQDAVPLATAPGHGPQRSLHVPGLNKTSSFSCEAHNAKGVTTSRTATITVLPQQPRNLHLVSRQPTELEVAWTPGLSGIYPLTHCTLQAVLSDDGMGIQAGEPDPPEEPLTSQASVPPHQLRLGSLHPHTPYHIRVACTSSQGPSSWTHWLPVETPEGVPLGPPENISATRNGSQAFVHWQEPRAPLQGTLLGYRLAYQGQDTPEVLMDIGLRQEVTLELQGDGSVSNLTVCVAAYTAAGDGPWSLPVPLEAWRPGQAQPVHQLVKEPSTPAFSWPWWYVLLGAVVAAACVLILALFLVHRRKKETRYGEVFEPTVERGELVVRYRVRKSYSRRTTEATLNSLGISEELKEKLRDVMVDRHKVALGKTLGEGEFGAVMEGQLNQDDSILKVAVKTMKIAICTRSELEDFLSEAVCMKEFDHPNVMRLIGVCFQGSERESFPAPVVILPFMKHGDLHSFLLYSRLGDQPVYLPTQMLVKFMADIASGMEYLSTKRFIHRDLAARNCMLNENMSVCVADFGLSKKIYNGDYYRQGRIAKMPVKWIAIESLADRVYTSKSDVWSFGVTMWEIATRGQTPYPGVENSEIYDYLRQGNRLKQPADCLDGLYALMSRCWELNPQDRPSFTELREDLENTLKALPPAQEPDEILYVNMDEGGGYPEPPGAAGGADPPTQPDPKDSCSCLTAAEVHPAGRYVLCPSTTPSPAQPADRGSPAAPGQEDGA
Briefly: Biochemical potency, HTRF KinEASE-TK kinase assay. Details: purchased Invitrogen. The settings on record: 5 nM AXL, 700 μM ATP. In short, it runs like this: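 Steps: compound plus kinase, 1 h RT; add ATP (700 µM final) and biotin-TK substrate (800 nM final); run 2 h RT; stop into streptavidin-XL665/anti-phospho cryptate detection mix, 1 h; read 665/620. AXL at 5 nM, TYRO3 and MER at 1 nM.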
A general note: In TR-FRET formats the signal depends on donor and acceptor labels being close together.

The target in assay [2] is T2, recombinant human MER (Homo sapiens, UniProt Q12866).
T2 construct: purchased Invitrogen
T2 sequence (Q12866 21-999): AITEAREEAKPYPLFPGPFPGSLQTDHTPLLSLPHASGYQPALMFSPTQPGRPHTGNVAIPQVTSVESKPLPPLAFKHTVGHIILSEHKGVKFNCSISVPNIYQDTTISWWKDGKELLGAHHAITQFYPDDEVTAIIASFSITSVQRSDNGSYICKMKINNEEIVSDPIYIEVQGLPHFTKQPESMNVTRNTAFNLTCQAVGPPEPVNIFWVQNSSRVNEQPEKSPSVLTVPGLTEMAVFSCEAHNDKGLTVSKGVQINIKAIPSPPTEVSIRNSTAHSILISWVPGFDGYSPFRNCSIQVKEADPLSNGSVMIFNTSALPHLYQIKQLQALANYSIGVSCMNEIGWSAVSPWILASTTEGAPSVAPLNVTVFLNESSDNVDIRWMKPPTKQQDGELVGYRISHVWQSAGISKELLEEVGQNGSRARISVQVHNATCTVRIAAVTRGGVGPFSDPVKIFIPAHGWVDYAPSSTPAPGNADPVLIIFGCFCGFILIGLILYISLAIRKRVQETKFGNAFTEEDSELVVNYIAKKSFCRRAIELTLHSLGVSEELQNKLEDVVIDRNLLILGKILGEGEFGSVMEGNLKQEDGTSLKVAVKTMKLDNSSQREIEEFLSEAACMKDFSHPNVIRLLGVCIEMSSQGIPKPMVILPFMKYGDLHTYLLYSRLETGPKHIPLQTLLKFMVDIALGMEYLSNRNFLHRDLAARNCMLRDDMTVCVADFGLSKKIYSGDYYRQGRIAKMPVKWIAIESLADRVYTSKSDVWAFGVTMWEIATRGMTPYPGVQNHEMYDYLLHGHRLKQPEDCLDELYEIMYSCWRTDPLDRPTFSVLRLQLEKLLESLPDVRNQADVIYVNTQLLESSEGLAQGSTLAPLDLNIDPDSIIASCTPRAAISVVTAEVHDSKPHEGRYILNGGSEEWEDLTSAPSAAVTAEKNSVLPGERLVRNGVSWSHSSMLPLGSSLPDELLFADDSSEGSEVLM
Briefly: Biochemical potency, HTRF KinEASE-TK kinase assay. The settings on record: 1 nM MER, 700 μM ATP. On the procedure: Measurement of Biochemical Compound Potency of Axl Inhibitors
Purified recombinant human AXL, TYRO3 and MER proteins were purchased from Invitrogen™. 10 nM AXL, 2 nM TYRO3 or MER were incubated with varying concentrations of compounds in 50 mM HEPES, pH 7.4, 10 mM MgCl2, 0.01% BSA, 1 mM DTT and 2% DMSO in a total volume of 20 μl in a 384-well microplate (Corning™ #3640) at RT for 1 h. The AXL, TYRO3 and MER enzymatic reaction was initiated by transferring 10 μl of enzyme and compound mixture into 10 μl of 1.6 μM TK Substrate-biotin (HTRF® KinEASE-TK kit, Cisbio) and 1400 μM ATP pre-incubated in 50 mM HEPES, pH 7.4, 10 mM MgCl2, 0.01% BSA, 1 mM DTT in a 384-well microplate (Corning™ #3640) at RT, giving the final reaction conditions: 5 nM AXL, 1 nM TYRO3 or MER, 800 nM TK Substrate-biotin and 700 μM ATP in 50 mM HEPES, pH 7.4, 10 mM MgCl2, 0.01% BSA, 1 mM DTT and 1% DMSO with varying concentrations of compounds. Following 2 h incubation at RT, the AXL, TYRO3 and MER enzymatic reaction was stopped by transfer of 10 μl of reaction into 10 μl of detection mix (400 nM Streptavidin-XL665, 200-fold dilution TK Antibody-Cryptate and detection buffer, HTRF® KinEASE-TK kit, Cisbio) in a white 384-well microplate (Perkin Elmer, OptiPlate 384). After 1 h incubation at RT, the plate was put into a plate reader (Evision) to read at 665/620 nm (acceptor/donor) for HTRF. The value of the DMSO blank (MIN inhibition=100% activity) was used as a negative control. The positive control was established by adding 5 μl of enzyme and DMSO mixture into 10 μl of detection mix followed by addition of 5 μl of TK Substrate-biotin and ATP mixture (MAX inhibition=0% activity). To calculate the percent activity, Equation 1 was used. Ratio665/620 is the value at a given compound concentration: […]

The target of assay [3] is T3, p-AXL (Homo sapiens, UniProt P30530).
T3 construct: expressed in transfected cells; host or cells: HEK293T
T3 sequence (P30530 26-894): T1 sequence (P30530 26-894)
Description: Axl phosphorylation inhibition ELISA in HEK293T cells transfected with NanoLuc-tagged AXL. The assay is classed as cell-based. Particulars: 1 h compound incubation, media (OptiMEM). In short, it runs like this:
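HEK293T cells transiently transfected one day earlier with NanoLuc-tagged AXL were exposed to 22-point 2-fold compound dilutions for 1 h at 37° C (70,000 cells/well), then lysed. Lysates captured on anti-phospho-tyrosine coated plates for 2 h; bound p-AXL read by NanoLuc luminescence; IC50 from 4-parameter logistic fit.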
For orientation: ELISA stands for enzyme-linked immunosorbent assay.

Turning to `Cc1ccc(C)c(-c2ccc(-c3n[nH]c4ncc(-c5ccc6c(c5)CC[C@@H](N5C7COC[C@H]5C7)CC6)cc34)nc2)n1` [Example 9, 3,6-Dimethyl-6′-{5-[(7S)-7-[(1R)-3-oxa-6-azabicyclo[3.1.1]heptan-6-yl]-6,7,8,9-tetrahydro-5H-benzo[7]annulen-2-yl]-1H-pyrazolo[3,4-b]pyridin-3-yl}-2,3′-bipyridine], the IC50 in assay [1] was below 100 nM; in assay [2] it was 100 to 1000 nM; in assay [3] it was below 100 nM.
With `O=C1OCCN1c1nccnc1-c1ccc(-c2n[nH]c3ncc(-c4ccc5c(c4)CC[C@@H](N4C6COCC4C6)CC5)cc23)cc1` [Example 126, 3-[3-(4-{5-[(7S)-7-{3-Oxa-6-azabicyclo[3.1.1]heptan-6-yl}-6,7,8,9-tetrahydro-5H-benzo[7]annulen-2-yl]-1H-pyrazolo[3,4-b]pyridin-3-yl}phenyl)pyrazin-2-yl]-1,3-oxazolidin-2-one], the half-inhibitory concentration (IC50) in assay [1] was below 100 nM; in assay [2] it was 100 to 1000 nM; in assay [3], 100 to 1000 nM.
Consider `Cc1cccnc1-n1cc(-c2n[nH]c3ncc(-c4ccc5c(c4)CC[C@@H](N4C6COCC4C6)CC5)cc23)cn1` [Example 79, 6-[(7S)-2-{3-[1-(3-Methylpyridin-2-yl)-1H-pyrazol-4-yl]-1H-pyrazolo[3,4-b]pyridin-5-yl}-6,7,8,9-tetrahydro-5H-benzo[7]annulen-7-yl]-3-oxa-6-azabicyclo[3.1.1]heptane], for which the values for the IC50 in assay [1], in assay [2] and in assay [3] were below 100 nM, 100 to 1000 nM and below 100 nM, respectively.
As for `Cc1nccnc1-c1ccc(-c2n[nH]c3ncc(-c4ccc5c(c4)CC[C@@H](N4C6COCC4C6)CC5)cc23)nc1` [Example 55, 6-[(7S)-2-{3-[5-(3-Methylpyrazin-2-yl)pyridin-2-yl]-1H-pyrazolo[3,4-b]pyridin-5-yl}-6,7,8,9-tetrahydro-5H-benzo[7]annulen-7-yl]-3-oxa-6-azabicyclo[3.1.1]heptane], the half-inhibitory concentration (IC50) in assay [1] is below 100 nM; in assay [2], above 1000 nM; in assay [3] it was below 100 nM.
In the case of `Cc1cccnc1-c1ccc(-c2n[nH]c3ncc(-c4ccc5c(c4)CC[C@@H](N4C6COCC4C6)CC5)cc23)nn1` [Example 17, 6-[(7S)-3-[3-[6-(3-Methylpyridin-2-yl)pyridazin-3-yl]-1H-pyrazolo[3,4-b]pyridin-5-yl]-6,7,8,9-tetrahydro-5H-benzo[7]annulen-7-yl]-3-oxa-6-azabicyclo[3.1.1]heptane], the IC50 is below 100 nM in assay [1], 100 to 1000 nM in assay [2] and below 100 nM in assay [3].
